{"source": "patent US20240327790A1", "about": "“METHODS AND COMPOSITIONS RELATING TO 3-D CULTURES” (PRESIDENT AND FELLOWS OF HARVARD COLLEGE, priority 2021, published 2024)", "key": {"[1]": {"test_system": "human skin models, primary human neonatal keratinocytes", "assay": "Irritation test (MTT viability) on skin models with neonatal keratinocytes", "format": "cell-based", "details": "3 mg/mL SDS in PBS, 50 μL on top of 14-day neonatal samples, 18 hours at 37° C., MTT 3 hours, absorbance 490 nm", "description": "(§1) One potential use-case for these skin models is as an irritation model for pharmaceuticals, cosmetics, or occupational health studies. To evaluate the use of these stamped models in irritation tests, a common test method^21 was adapted. Sodium dodecyl sulfate (SDS) was applied to the top of these samples after 14 days of culture and incubated at 37° C. for 18 hours. After, an MTT assay was used to measure the cell viability. […] If the SDS penetrates through the epidermal barrier, the sample will not be viable and give a low signal in the MTT assay. […] Moreover, the standard for this test method is that the normalized viability reaches 50% between 1-3 mg/mL of SDS added to the samples^21. The samples here met this standard, as the 3 mg/mL neonatal samples have absorbance values greater than 50% of the negative control, and the diabetic sample with 2 mg/mL SDS has absorbance value greater than 50% of the negative control.\n(§2) Irritation Test. After keratinocytes had grown for 14 days, 50 μL of SDS at a concentration between 1-3 mg/mL in PBS was applied to the top of each skin sample. 1×PBS was applied as a negative control. […] After the substrate was completely dissolved, 50 μL of isopropanol formazan solution was transferred from each well to a 48 well plate, which was measured on a plate reader using the absorbance setting at 490 nm."}, "[2]": {"test_system": "human skin model, primary human adult diabetic keratinocytes", "assay": "Irritation test (MTT viability) on skin model with adult diabetic donor keratinocytes", "format": "cell-based", "details": "2 mg/mL SDS in PBS, 50 μL on top of 14-day diabetic sample, 18 hours at 37° C., MTT 3 hours, absorbance 490 nm", "description": "as §1, §2"}}, "data": [{"compound": "CCCCCCCCCCCCOS(=O)(=O)[O-].[Na+]", "note": "[SDS, Sodium dodecyl sulfate]", "values": [{"measurement": "absorbance value (MTT viability) relative to negative control", "setting": "[1]", "value": "greater than 50 % of the negative control"}, {"measurement": "absorbance value (MTT viability) relative to negative control", "setting": "[2]", "value": "greater than 50 % of the negative control"}]}]}
